{"source": "patent US8637525B2", "about": "“Compounds for the reduction of beta-amyloid production” (Bristol-Myers Squibb Company, priority 2009, dated 2014)", "note": "pIC50: −log10 of the molar value."}
{"tested_on": "Aβ1-42 production", "experiment": "Cellular assay for inhibition of Aβ1-42 production (H4 APP751 SWE clone 8.20)", "type": "cell-based", "conditions": "19 h, H4 APP751 SWE clone 8.20 cells, 19 h incubation; class symbols; read-out: Activity Rating (Aβ42 cellular IC50)", "in_short": "(§1)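 Inhibition values are IC50s fitted to Viewlux counts after a 19 h compound exposure at 37 °C. Aβ42 was captured by the neoepitope-specific antibody 565 (0.8 ng/well) paired with N-terminal 26D6 (75 ng/well), incubated overnight at 4 °C in pH 7.4 Tris-HCl buffer containing 0.2% BSA.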"}
{"smiles": "CNc1nc(Nc2ccc(-n3cnc(C)n3)c(OC)c2)nc2c1COCC2c1ccc(Cl)cc1", "note": "(stereo not drawn) [Example 71, 8-(4-chlorophenyl)-N^2-(3-methoxy-4-(3-methyl-1H-1,2,4-triazol-1-yl)phenyl)-N^4-methyl-7,8-dihydro-5H-pyrano[4,3-d]pyrimidine-2,4-diamine]", "pIC50": "7.00 to 8.00"}
{"smiles": "CCNc1nc(Nc2ccc(-n3cnc(Cl)c3)c(OC)c2)nc2c1CN(CC(F)F)CC2c1ccccc1", "note": "(stereo not drawn) [Example 197B, N4-ethyl-N2-(3-methoxy-4-(4-chloro-1H-13-imidazol-1-yl)phenyl)-8-phenyl-6-(2,2-difluoroethyl)-5,6,7,8-tetrahydropyrido[4,3-d]pyrimidine-2,4-diamine]", "pIC50": "8.00 to 8.82"}
{"smiles": "CNc1nc(Nc2ccc3[nH]c(C)cc3c2)nc2c1CCC2c1ccccc1", "note": "(stereo not drawn) [Example 249, N4-methyl-N2-(2-methyl-1H-indol-5-yl)-7-phenyl-6,7-dihydro-5H-cyclopenta[d]pyrimidine-2,4-diamine]", "pIC50": "< 6.00"}
{"smiles": "COc1cc(Nc2nc3c(c(N4CC(F)(F)C4)n2)CN(S(C)(=O)=O)CC3c2ccc(F)cc2)ccc1-n1cnc(Cl)c1", "note": "(stereo not drawn) [Example 160, N-(4-(4-chloro-1H-imidazol-1-yl)-3-methoxyphenyl)-4-(3,3-difluoroazetidin-1-yl)-8-(4-fluorophenyl)-6-(methylsulfonyl)-5,6,7,8-tetrahydropyrido[4,3-d]pyrimidin-2-amine]", "pIC50": "7.00 to 8.00"}
{"smiles": "CCNc1nc(Nc2ccc(-n3cnc(Cl)c3)c(OC)c2)nc2c1CN(C(C)=O)CC2c1ccccc1", "note": "(stereo not drawn) [Example 137A, 1-(2-(4-(4-chloro-1H-imidazol-1-yl)-3-methoxyphenylamino)-4-(ethylamino)-8-phenyl-7,8-dihydropyrido[4,3-d]pyrimidin-6(5H)-yl)ethanone]", "pIC50": "8.00 to 8.82"}
{"smiles": "CNc1nc(Nc2ccc(-n3cnc(C(F)F)c3)c(OC)c2)nc2c1CCC2c1ccc(F)cc1", "note": "(stereo not drawn) [Example 208, N2-(4-(4-(difluoromethyl)-1H-imidazol-1-yl)-3-methoxyphenyl)-7-(4-fluorophenyl)-N4-methyl-6,7-dihydro-5H-cyclopenta[d]pyrimidine-2,4-diamine]", "pIC50": "7.00 to 8.00"}
{"smiles": "CCNc1nc(Nc2ccc(-n3cnc(Cl)c3)c(OC)c2)nc2c1CCOC2c1ccc(F)cc1", "note": "(stereo not drawn) [Example 88B, N2-(4-(4-chloro-1H-imidazol-1-yl)-3-methoxyphenyl)-N4-ethyl-8-(4-fluorophenyl)-6,8-dihydro-5H-pyrano[3,4-d]pyrimidine-2,4-diamine]", "pIC50": "7.00 to 8.00"}
{"smiles": "CNc1nc(Nc2ccc(-n3cnc(C)n3)c(OC)c2)nc2c1CCC2c1ccc(C(F)(F)F)nc1", "note": "(stereo not drawn) [Example 276, N2-(3-methoxy-4-(3-methyl-1H-1,2,4-triazol-1-yl)phenyl)-N4-methyl-7-(6-(trifluoromethyl)pyridin-3-yl)-6,7-dihydro-5H-cyclopenta[d]pyrimidine-2,4-diamine]", "pIC50": "7.00 to 8.00"}
{"smiles": "CCNc1nc(Nc2ccc(-n3ncnc3C)c(F)c2)nc2c1COCC2c1ccc(F)cc1", "note": "(racemic) [Example 59, N4-ethyl-N2-(3-fluoro-4-(5-methyl-1H-1,2,4-triazol-1-yl)phenyl)-8-(4-fluorophenyl)-7,8-dihydro-5H-pyrano[4,3-d]pyrimidine-2,4-diamine]", "pIC50": "7.00 to 8.00"}
{"smiles": "COc1cc(Nc2nc3c(c(N4CCC(F)(F)CC4)n2)CCC3c2ccc(F)cc2)ccc1-n1cnc(Cl)c1", "note": "(racemic) [Example 39, N-(4-(4-chloro-1H-imidazol-1-yl)-3-methoxyphenyl)-4-(4,4-difluoropiperidin-1-yl)-7-(4-fluorophenyl)-6,7-dihydro-5H-cyclopenta[d]pyrimidin-2-amine]", "pIC50": "7.00 to 8.00"}
{"smiles": "CNc1nc(Nc2ccc(-n3cnc(C#N)c3)c(OC)c2)nc2c1CCC2c1ccccc1", "note": "(stereo not drawn) [Example 204B, 1-(2-methoxy-4-(4-(methylamino)-7-phenyl-6,7-dihydro-5H-cyclopenta[d]pyrimidin-2-ylamino)phenyl)-1H-imidazole-4-carbonitrile]", "pIC50": "6.00 to 7.00"}
{"smiles": "CCOC1CN(c2nc(Nc3ccc(-n4cnc(Cl)c4)c(OC)c3)nc3c2CCC3c2ccc(F)cc2)C1", "note": "(stereo not drawn) [Example 187, N-(4-(4-chloro-1H-imidazol-1-yl)-3-methoxyphenyl)-4-(3-ethoxyazetidin-1-yl)-7-(4-fluorophenyl)-6,7-dihydro-5H-cyclopenta[d]pyrimidin-2-amine]", "pIC50": "7.00 to 8.00"}
{"smiles": "COc1cc(Nc2nc3c(c(N4CCC(F)C4)n2)COCC3c2ccc(F)cc2)ccc1-n1cnc(Cl)c1", "note": "(stereo in doubt) [Example 57B, N-(4-(4-chloro-1H-imidazol-1-yl)-3-methoxyphenyl)-8-(4-fluorophenyl)-4-((R)-3-fluoropyrrolidin-1-yl)-7,8-dihydro-5H-pyrano[4,3-d]pyrimidin-2-amine]", "pIC50": "6.00 to 7.00"}
{"smiles": "CNc1nc(Nc2ccc(F)c(OC)c2)nc2c1CCC2c1ccccc1", "note": "(stereo not drawn) [Example 222, N2-(4-fluoro-3-methoxyphenyl)-N4-methyl-7-phenyl-6,7-dihydro-5H-cyclopenta[d]pyrimidine-2,4-diamine]", "pIC50": "< 6.00"}
{"smiles": "COc1cc(Nc2nc3c(c(N4CC(F)(F)C4)n2)COCC3c2ccc(Cl)cc2)ccc1-n1cnc(Cl)c1", "note": "(stereo not drawn) [Example 66, N-(4-(4-chloro-1H-imidazol-1-yl)-3-methoxyphenyl)-8-(4-chlorophenyl)-4-(3,3-difluoroazetidin-1-yl)-7,8-dihydro-5H-pyrano[4,3-d]pyrimidin-2-amine]", "pIC50": "7.00 to 8.00"}
{"smiles": "COc1cc(Nc2nc3c(c(N4CCC(F)C4)n2)CCOC3c2ccc(F)cc2)ccc1-n1cnc(Cl)c1", "note": "(stereo in doubt) [Example 90A, N-(4-(4-chloro-1H-imidazol-1-yl)-3-methoxyphenyl)-8-(4-fluorophenyl)-4-((R)-3-fluoropyrrolidin-1-yl)-6,8-dihydro-5H-pyrano[3,4-d]pyrimidin-2-amine]", "pIC50": "7.00 to 8.00"}
{"tested_on": "Aβ1-42 production", "experiment": "Cellular assay for inhibition of Aβ1-42 production (H4 APP751 SWE clone 8.20)", "type": "cell-based", "conditions": "19 h, H4 APP751 SWE clone 8.20 cells, 19 h incubation; read-out: Activity Rating (Aβ42 cellular IC50), numeric value", "in_short": "as §1"}
{"smiles": "COc1cc(Nc2nc3c(c(N4CC(F)(F)C4)n2)CCC3c2ccc(OC(F)(F)F)cc2)ccc1-n1cnc(Cl)c1", "note": "(single isomer, unassigned) [Example 99B, N-(4-(4-chloro-1H-imidazol-1-yl)-3-methoxyphenyl)-4-(3,3-difluoroazetidin-1-yl)-7-(4-(trifluoromethoxy)phenyl)-6,7-dihydro-5H-cyclopenta[d]pyrimidin-2-amine]", "pIC50": 6.72}
{"smiles": "COCC(Nc1nc(Nc2ccc(-n3cnc(Cl)c3)c(OC)c2)nc2c1CCC2c1ccc(F)cc1)C1CC1", "note": "(stereo not drawn) [Example 45B, N2-(4-(4-chloro-1H-imidazol-1-yl)-3-methoxyphenyl)-N4-(1-cyclopropyl-2-methoxyethyl)-7-(4-fluorophenyl)-6,7-dihydro-5H-cyclopenta[d]pyrimidine-2,4-diamine]", "pIC50": 8.60}
{"smiles": "CC#Cc1ccc(Nc2nc(NC)c3c(n2)C(c2ccc(F)cc2)CC3)cc1", "note": "(stereo not drawn) [Example 260, 7-(4-fluorophenyl)-N4-methyl-N2-(4-(prop-1-ynyl)phenyl)-6,7-dihydro-5H-cyclopenta[d]pyrimidine-2,4-diamine]", "pIC50": 6.07}
{"smiles": "C=CCC1(c2ccccc2)CCc2c(NCC)nc(Nc3ccc(-n4cnc(Cl)c4)c(OC)c3)nc21", "note": "(stereo not drawn) [Example 111, N2-(4-(4-chloro-1H-imidazol-1-yl)-3-methoxyphenyl)-N4-ethyl-7-allyl-7-phenyl-6,7-dihydro-5H-cyclopenta[d]pyrimidine-2,4-diamine]", "pIC50": 7.46}
{"smiles": "Cc1ncnn1-c1ccc(Nc2nc3c(c(N(C)C)n2)COCC3c2ccc(Cl)cc2)cc1F", "note": "(single isomer, unassigned) [Example 67B, 8-(4-chlorophenyl)-N^2-(3-fluoro-4-(5-methyl-1H-1,2,4-triazol-1-yl)phenyl)-N^4,N^4-dimethyl-7,8-dihydro-5H-pyrano[4,3-d]pyrimidine-2,4-diamine]", "pIC50": 6.27}
{"smiles": "CNc1nc(Nc2ccc(Br)c(C#N)c2)nc2c1CCC2c1ccccc1", "note": "(stereo not drawn) [Example 242, 2-bromo-5-(4-(methylamino)-7-phenyl-6,7-dihydro-5H-cyclopenta[d]pyrimidin-2-ylamino)benzonitrile]", "pIC50": 7.17}
{"tested_on": "Aβ1-42 production", "experiment": "Cellular assay for inhibition of Aβ1-42 production (H4 APP751 SWE clone 8.20)", "type": "cell-based", "conditions": "19 h, H4 APP751 SWE clone 8.20 cells, 19 h incubation; read-out: Activity Rating (Aβ42 cellular IC50), numeric value printed without unit", "in_short": "as §1"}
{"smiles": "CNc1nc(Nc2ccc(-n3cnc(Cl)c3)c(OC)c2)nc2c1CCC2c1ccc(F)cc1", "note": "(single isomer, unassigned) [Example 11A, N^2-(4-(4-Chloro-1H-imidazol-1-yl)-3-methoxyphenyl)-7-(4-fluorophenyl)-N^4-methyl-6,7-dihydro-5H-cyclopenta[d]pyrimidine-2,4-diamine]", "pIC50": 8.42}
{"tested_on": "Aβ1-42 production", "experiment": "Cellular assay for inhibition of Aβ1-42 production (H4 APP751 SWE clone 8.20)", "type": "cell-based", "conditions": "H4 APP751 SWE clone 8.20 cells, 19 h incubation; class symbols; read-out: Activity Rating (Aβ42 cellular IC50)", "in_short": "as §1"}
{"smiles": "CCNc1nc(Nc2ccc(-n3cnc(Cl)c3)c(OC)c2)nc2c1CN(C(=O)COC)CC2c1ccccc1", "note": "(stereo not drawn) [Example 133, 1-(2-(4-(4-chloro-1H-imidazol-1-yl)-3-methoxyphenylamino)-4-(ethylamino)-8-phenyl-7,8-dihydropyrido[4,3-d]pyrimidin-6(5H)-yl)-2-methoxyethanone]", "pIC50": "7.00 to 8.00"}
{"smiles": "CNc1nc(Nc2ccc(-n3cnc(Cl)c3)c(OC)c2)nc2c1CCC2c1ccc(Cl)cc1", "note": "(single isomer, unassigned) [Example 94B, N^2-(4-(4-chloro-1H-imidazol-1-yl)-3-methoxyphenyl)-7-(4-chlorophenyl)-N^4-methyl-6,7-dihydro-5H-cyclopenta[d]pyrimidine-2,4-diamine]", "pIC50": "7.00 to 8.00"}
{"smiles": "CCNc1nc(Nc2ccc(-n3cnc(Cl)c3)c(OC)c2)nc2c1CCC2(C)c1ccccc1", "note": "(stereo not drawn) [Example 110A, N2-(4-(4-chloro-1H-imidazol-1-yl)-3-methoxyphenyl)-N4-ethyl-7-methyl-7-phenyl-6,7-dihydro-5H-cyclopenta[d]pyrimidine-2,4-diamine]", "pIC50": "8.00 to 8.82"}
{"smiles": "CCNc1nc(Nc2ccc(-n3cnc(Cl)c3)c(OC)c2)nc2c1CCC2c1ccc(OC(F)(F)F)cc1", "note": "(single isomer, unassigned) [Example 98A, N^2-(4-(4-Chloro-1H-imidazol-1-yl)-3-methoxyphenyl)-N^4-ethyl-7-(4-(trifluoromethoxy)phenyl)-6,7-dihydro-5H-cyclopenta[d]pyrimidine-2,4-diamine]", "pIC50": "8.00 to 8.82"}
